Columns and labels:
Assay in all cases: relative viability (nuclei count vs DMSO), 5 days (fraction); higher = more cells survive
Fedratinib + Lapatinib = compound: Cc1cnc(Nc2ccc(OCCN3CCCC3)cc2)nc1Nc1cccc(S(=O)(=O)NC(C)(C)C)c1 [Fedratinib] + CS(=O)(=O)CCNCc1ccc(-c2ccc3ncnc(Nc4ccc(OCc5cccc(F)c5)c(Cl)c4)c3c2)o1 [Lapatinib] (partner 2 µM)
Method in brief: (§1)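 The day after seeding in 1536-well plates, lung cancer cell lines were treated by pin tool with a single drug, or with a fixed anchor-drug dose together with five library-drug doses (not always all listed) in √10 steps. After 5 days, a combined fix-and-stain solution (final 0.05% Triton X-100, 1% formaldehyde, 1 ug/ml Hoechst) was added. Nuclei counted on 4× images gave relative viability as treated counts over vehicle counts, reported as the median of duplicate plates.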

GW-2580 + Olaparib = compound: COC1=CC=C(C=C1)COC2=C(C=C(C=C2)CC3=CN=C(N=C3N)N)OC [GW-2580] + O=C(c1cc(Cc2n[nH]c(=O)c3ccccc23)ccc1F)N1CCN(C(=O)C2CC2)CC1 [Olaparib] (partner 8 µM)
Method in brief: as §1

Fedratinib + Pictilisib = compound: Cc1cnc(Nc2ccc(OCCN3CCCC3)cc2)nc1Nc1cccc(S(=O)(=O)NC(C)(C)C)c1 [Fedratinib] + CS(=O)(=O)N1CCN(Cc2cc3nc(-c4cccc5[nH]ncc45)nc(N4CCOCC4)c3s2)CC1 [Pictilisib] (partner 1 µM)
Method in brief: as §1

GW-2580 + Pemetrexed = compound: COC1=CC=C(C=C1)COC2=C(C=C(C=C2)CC3=CN=C(N=C3N)N)OC [GW-2580] + Nc1nc2[nH]cc(CCc3ccc(C(=O)N[C@@H](CCC(=O)O)C(=O)O)cc3)c2c(=O)[nH]1 [Pemetrexed] (partner 0.2 µM)
Method in brief: as §1

Fedratinib + Bortezomib = compound: Cc1cnc(Nc2ccc(OCCN3CCCC3)cc2)nc1Nc1cccc(S(=O)(=O)NC(C)(C)C)c1 [Fedratinib] + CC(C)C[C@H](NC(=O)[C@H](Cc1ccccc1)NC(=O)c1cnccn1)B(O)O [Bortezomib] (partner 0.002 µM)
Method in brief: as §1

| Cell Line | relative viability (Fedratinib + Lapatinib; first compound 0.1 µM) | relative viability (Fedratinib + Lapatinib; first compound 0.3162 µM) | relative viability (Fedratinib + Lapatinib; first compound 1 µM) | relative viability (GW-2580 + Olaparib; first compound 0.08 µM) | relative viability (GW-2580 + Olaparib; first compound 0.8 µM) | relative viability (GW-2580 + Olaparib; first compound 2.53 µM) | relative viability (GW-2580 + Olaparib; first compound 8 µM) | relative viability (Fedratinib + Pictilisib; first compound 0.1 µM) | relative viability (Fedratinib + Pictilisib; first compound 0.3162 µM) | relative viability (Fedratinib + Pictilisib; first compound 1 µM) | relative viability (GW-2580 + Pemetrexed; first compound 0.08 µM) | relative viability (GW-2580 + Pemetrexed; first compound 0.8 µM) | relative viability (GW-2580 + Pemetrexed; first compound 2.53 µM) | relative viability (GW-2580 + Pemetrexed; first compound 8 µM) | relative viability (Fedratinib + Bortezomib; first compound 0.1 µM) | relative viability (Fedratinib + Bortezomib; first compound 0.3162 µM) | relative viability (Fedratinib + Bortezomib; first compound 1 µM) |
| --- | --- | --- | --- | --- | --- | --- | --- | --- | --- | --- | --- | --- | --- | --- | --- | --- | --- |
| HCC-44 | 1.04 | 0.911 | 0.901 | 1.04 | 1.05 | 1.04 | 1.03 | 0.407 | 0.623 | 0.465 | 0.727 | 0.638 | 0.649 | 0.666 | 0.905 | 0.827 | 0.734 |
| HCC-78 | 0.929 |  | 0.609 | 0.818 | 0.919 | 0.757 | 0.861 | 0.227 |  | 0.226 | 0.972 | 0.939 | 0.909 | 0.948 | 0.439 | 0.535 | 0.511 |
| IA-LM | 0.873 | 0.632 | 0.46 | 0.844 | 1 | 0.853 | 0.756 | 0.26 | 0.288 | 0.199 |  |  |  |  | 0.747 | 0.784 | 0.642 |
| LCLC-103H |  |  |  | 0.799 | 0.895 | 0.733 | 0.736 | 0.536 | 0.678 | 0.512 | 0.452 | 0.416 | 0.447 | 0.5 | 0.801 | 0.997 | 0.897 |
| LK-2 | 0.798 | 0.828 | 0.638 | 0.625 | 0.732 | 0.612 | 0.775 |  | 0.563 | 0.399 | 0.287 | 0.283 | 0.245 | 0.295 |  |  |  |
| NCI-H358 | 0.366 | 0.369 | 0.334 | 0.652 | 0.658 | 0.635 | 0.621 | 0.319 | 0.395 | 0.26 | 0.171 | 0.186 | 0.166 | 0.178 |  |  |  |
| NCI-H441 |  |  |  | 0.644 | 0.582 | 0.555 | 0.585 | 0.441 | 0.42 | 0.239 | 0.273 | 0.26 | 0.234 | 0.262 | 0.538 | 0.484 | 0.236 |
| NCI-H522 |  |  |  | 0.623 | 0.608 | 0.611 | 0.602 |  |  |  | 1.11 | 0.97 | 0.967 | 0.994 |  |  |  |
| NCI-H727 | 0.783 | 0.846 | 0.211 | 0.637 | 0.63 | 0.699 | 0.69 | 0.378 | 0.317 | 0.164 |  |  |  |  | 0.655 | 0.733 | 0.178 |
| NCI-H1299 | 0.963 | 0.96 | 0.983 | 1.05 | 0.965 | 0.922 | 0.876 | 0.629 | 0.688 | 0.529 |  |  |  |  | 1.05 | 1.02 | 1.01 |
| NCI-H1395 | 0.911 | 1.11 | 0.786 | 0.426 | 0.427 | 0.489 | 0.425 | 0.515 | 0.642 | 0.469 | 0.9 | 0.986 | 0.863 | 0.88 |  |  |  |
| NCI-H1563 | 0.915 | 1.07 | 0.65 |  |  |  |  | 0.608 | 0.711 | 0.712 | 0.763 | 0.883 | 0.674 | 0.792 | 0.699 | 0.939 | 0.631 |
| NCI-H1648 |  |  |  | 1.34 |  | 0.666 | 0.764 |  |  |  | 0.778 |  | 0.609 | 0.611 |  |  |  |
| NCI-H1703 | 0.675 | 0.834 | 0.667 | 0.418 | 0.43 | 0.412 | 0.363 | 0.244 | 0.233 | 0.204 |  |  |  |  | 0.244 | 0.341 | 0.24 |
| NCI-H1793 | 0.628 | 0.61 | 0.311 | 0.892 | 1.02 | 0.822 | 0.804 | 0.34 | 0.305 | 0.306 | 0.982 | 1.08 | 0.649 | 0.844 |  |  |  |
| NCI-H1944 | 0.816 | 0.803 | 0.615 | 0.427 | 0.432 | 0.378 | 0.399 | 0.333 | 0.344 | 0.302 | 0.621 | 0.638 | 0.556 | 0.512 |  |  |  |
| NCI-H2170 | 0.255 | 0.262 | 0.258 | 0.616 | 0.702 | 0.569 | 0.574 | 0.266 | 0.329 | 0.221 | 0.26 | 0.261 | 0.264 | 0.251 |  |  |  |
| NCI-H2342 |  |  |  | 0.397 | 0.59 | 0.382 | 0.382 |  |  |  | 0.705 | 0.828 | 0.682 | 0.733 |  |  |  |
| SK-MES-1 | 0.469 | 0.481 | 0.458 | 0.79 | 0.795 | 0.603 | 0.777 | 0.314 | 0.38 | 0.283 | 1.01 | 1.04 | 0.878 | 0.824 |  |  |  |
| SW 900 |  |  |  | 0.864 | 1.03 | 0.994 | 0.747 |  |  |  | 0.509 | 0.511 | 0.495 | 0.547 |  |  |  |
